Source: patent US20100113613A1, “CYCLOHEXANE POLYALCOHOL FORMULATION FOR TREATMENT OF DISORDERS OF PROTEIN AGGREGATION” (WARATAH PHARMACEUTICALS, priority 2006, published 2010)

Legend:
[1] = TgCRND8 (outbred C3H/C57B16 background), mouse, in vivo
TgCRND8 mice = details: despite in vitro efficacy
[2] = Brain and CSF levels of inositols after one month ad libitum dosing (GC/MS), Example 2; type: in vivo, TgCRND8 mice; details: TgCRND8 mice, myo-cyclohexanehexyl ad libitum for one month
Method: Study drugs were administered either at 30 mg/kg by oral gavage, or ad libitum by dissolution in drinking water. For administration in drinking water, study drugs were dissolved at 10 mg/ml. The average amount of water taken from the bottle was 3 ml daily per animal. The average mouse weight was 33 g. […] Quantification of scyllo-cyclohexanehexyl and myo-inositol. Scyllo-cyclohexanehexyl and myo-cyclohexanehexyl levels in the brain and CSF were analyzed using gas chromatography/mass spectrometry. D-chiro-inositol was used as an internal control, as it is not present in these biological samples. Derivatization: To increase the volatility and thermal stability of these compounds and to allow for proper peak separation, these samples need to first be derivatized. The derivatization was adapted from a method presented previously (Shetty, H U, et al, 1995, Anal. Biochem. 224:279-85), where the hydroxyl groups of the cyclohexanehexyl were replaced with acetyl groups. […] Similarly, a 5-15 μl sample of CSF was mixed with 1 ml of methanol and allowed to stand at room temperature for 5 minutes. The resulting suspension was centrifuged (5 min, 5000×g) and the supernatant transferred to a glass tube (Teflon-lined cap). […] These samples were then evaporated to complete dryness (Speedvac; 60° C.). […] This mixture was flushed with dry nitrogen, securely capped and the tubes heated (80° C.; 30 min). Following derivatization, samples were cooled (RT) and the unreacted acetylating reagent evaporated using a steady stream of nitrogen gas. The derivatized products were re-dissolved (4 ml; hexane-ethyl acetate (80:20, v/v)) and washed with 1 ml of 5% sodium hydrogencarbonate solution. […] The residue was reconstituted in 100 μl; ethyl acetate. 1 μL of this was injected into the GC/MS system. A similar procedure was followed using stock concentrations of scyllo- and myo-cyclohexanehexols, which were then used to generate concentration curves (in this case the internal standard was derivatized separately and then added). GC/MS was performed using a Perkin Elmer TurboMass Autosystem XL, with a quadrupole mass spectrometer and electron ionization. Gas chromatography was performed using a 30 m×0.25 mm×0.25 μm ZB 5 (5% diphenyl/95% dimethylpolysiloxane) column, using the carrier gas Helium (1 ml/min). Samples were injected with the split set to 50 at 1 min and 0 at 5 min, the injector temperature was set at 300° C. and an initial oven temperature of 80° C. After a hold of 1 min, the temperature was ramped at 45° C./min to 187° C. and held there for 15 min. […] Sample peaks were analyzed using selected-ion monitoring, using m/z 168 for determining cyclohexanehexyl levels in the brain and CSF and m/z 373 for determining cyclohexanehexyl levels in plasma, as monitoring the larger ion reduced noise. […]

[3] = Orally administered tritiated-inositol uptake in plasma and brain (FIG. 16); type: in vivo
Method: FIG. 16. Bioavailability of scyllo- (solid line) and myo-inositol (dashed line) in plasma and brain, determined using orally administered tritiated-inositol uptake studies. […] Brain levels also rose rapidly and were maximal at 8 h and 32 h, respectively.

increase in brain myo inositol levels over untreated controls [1]: 1.2 fold
increase of myo-cyclohexanehexyl level in brain vs untreated ([2]; p<0.001): 20%
levels of myo-cyclohexanehexyl in CSF vs untreated ([2]; p=0.35): did not show any significant changes
time of maximal brain levels [3]: 8 h
time of peak plasma levels post administration [3]: 2 h
SMILES: O[C@H]1[C@H](O)[C@@H](O)[C@H](O)[C@@H](O)[C@H]1O [myo-inositol, reference compound]
efficacy for the treatment of TgCRND8 mice (TgCRND8 mice): not shown to be effective
